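Results reflect a 48-hour exposure of cells in 96-well plates to compound at five concentrations. GI50 is the concentration that inhibits growth by half. Definition used: TGI = concentration required for complete inhibition of growth.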
Tests used:
Assay in all cases: inhibition of tumour cell growth, NCI panel, 48 h
MALME-3M melanoma = system: MALME-3M melanoma
T-47D breast = system: T-47D breast
DU-145 prostate = system: DU-145 prostate
RPMI-8226 leukemia = system: RPMI-8226 leukemia
NCI-H23 lung = system: NCI-H23 lung
NCI/ADR-RES ovarian = system: NCI/ADR-RES ovarian
MOLT-4 leukemia = system: MOLT-4 leukemia
HS 578T breast = system: HS 578T breast
UACC-257 melanoma = system: UACC-257 melanoma
OVCAR-3 ovarian = system: OVCAR-3 ovarian
NCI-H460 lung = system: NCI-H460 lung
OVCAR-5 ovarian = system: OVCAR-5 ovarian
HL-60(TB) leukemia = system: HL-60(TB) leukemia
TK-10 renal = system: TK-10 renal
SK-OV-3 ovarian = system: SK-OV-3 ovarian
LOX IMVI melanoma = system: LOX IMVI melanoma
IGROV1 ovarian = system: IGROV1 ovarian

Row | SMILES | TGI (MALME-3M melanoma) [µM] | TGI (T-47D breast) [µM] | TGI (DU-145 prostate) [µM] | TGI (RPMI-8226 leukemia) [µM] | TGI (NCI-H23 lung) [µM] | TGI (NCI/ADR-RES ovarian) [µM] | TGI (MOLT-4 leukemia) [µM] | TGI (HS 578T breast) [µM] | TGI (UACC-257 melanoma) [µM] | TGI (OVCAR-3 ovarian) [µM] | TGI (NCI-H460 lung) [µM] | TGI (OVCAR-5 ovarian) [µM] | TGI (HL-60(TB) leukemia) [µM] | TGI (TK-10 renal) [µM] | TGI (SK-OV-3 ovarian) [µM] | TGI (LOX IMVI melanoma) [µM] | TGI (IGROV1 ovarian) [µM] | GI50 (DU-145 prostate) [µM] | GI50 (OVCAR-3 ovarian) [µM]
1 | Cc1ccc(S(=O)(=O)NNC2(NS(=O)(=O)c3ccc(Cl)cc3)C(Cl)=C(Cl)C(=O)c3ccccc32)cc1 (stereo not given) | 33.2 | > 100 | 33.2 | 67 | 34.1 | 89.8 | > 100 | 54.8 | 32.6 | 42.1 | 38.1 | 33.4 | 37.4 | 30.5 | 32.2 | 65.1 | 34.3 |  | 
2 | CCOc1cc2c(cc1OC(C)=O)C(=O)CC[C@H]1C3CC[C@H](OC(C)=O)[C@@]3(C)CC[C@H]21 (stereo not given in full) | > 100 | > 100 | > 100 | > 100 | > 100 | > 100 | > 100 | > 100 | > 100 | > 100 | > 100 | > 100 | > 100 | > 100 | > 100 | > 100 |  |  | 
3 | CC(C)(C)[Si](C)(C)OCCOCn1cc(F)c(=O)[nH]c1=O | > 100 | > 100 | > 100 | > 100 | > 100 | > 100 | > 100 | > 100 | > 100 | > 100 | > 100 | > 100 | > 100 | > 100 | > 100 | > 100 | > 100 |  | 
4 | O=C(Cc1ccccc1)NNc1nc(NNC(=O)c2ccncc2)nc(Nc2cccc(Cl)c2)n1 | > 10 | > 10 | > 10 | > 10 | > 10 | > 10 | > 10 | > 10 | > 10 |  | > 10 |  | > 10 | > 10 | > 10 | > 10 | > 10 |  | 
5 | O=C1/C(=C/c2ccccc2)CCC/C1=C\c1ccc(O)c(CN2CCCCC2)c1 | 40.2 | 17.6 | 7.44 | > 100 | 15.1 | 8.44 | 8.21 | 15.1 | 18.5 | 22.9 | 16.5 | 37.9 | > 100 | 31 | 22.2 | 4.08 | 11.2 |  | 
6 | Nc1nc(N)c2[nH]cnc2n1 (tested in a mixture with another compound) | > 100 | 40 | > 100 | > 100 | 77.5 | > 100 | > 100 | > 100 | 55.2 | 74.4 | 63.4 | > 100 | > 100 | 80.7 | > 100 | > 100 | > 100 |  | 
7 | CCCCOCCOC1=CC(=O)c2c(O)ccc(O)c2C1=O | 0.738 | 4.03 | 3.17 | > 10 | 3.17 | 4.74 | 9.38 | 4.99 | 2.23 | 3.04 | 3.43 |  | 2.99 | 4.8 | > 10 | 3.15 | 3.35 |  | 
8 | CC(C)(C)OC(=O)N(CCNS(=O)(=O)c1cccc2cnccc12)CCC(=O)ON1C(=O)CCC1=O | > 100 | > 100 | > 100 | > 100 | > 100 | > 100 | > 100 | > 100 | > 100 | > 100 | > 100 | > 100 |  | > 100 | > 100 | > 100 | > 100 |  | 
9 | C/C(CC1SCCCS1)=C(/C)CC1SCCCS1 | > 100 | > 100 | > 100 | > 100 | > 100 | > 100 | > 100 | > 100 |  | > 100 | > 100 | > 100 | > 100 | > 100 |  | > 100 | > 100 |  | 
10 | Cc1n[nH]c(=O)n1/N=C\CC/C=N\n1c(C)n[nH]c1=O | > 100 | > 100 | > 100 | > 100 | > 100 | > 100 | > 100 | > 100 | > 100 | > 100 |  | > 100 | > 100 | > 100 | > 100 | > 100 | > 100 |  | 
11 | CC(C)C/C=C/C1=NN(c2cccc(S(=O)(=O)O)c2)C2(C1)SCC(=O)N2c1nc2ccccc2s1 (stereo not given) | > 100 | 47.2 | > 100 | 49.6 | > 100 | > 100 | > 100 | > 100 | > 100 |  | > 100 | > 100 | 82 | > 100 |  | 70 | > 100 |  | 
12 | CC12c3c4cc(Br)cc3Oc3cc(Br)cc(c31)Oc1cc(Br)cc(c12)O4 | 37.5 | > 100 | 49.1 | > 100 | > 100 | 58.5 | > 100 | > 100 | > 100 | 28.2 | > 100 | > 100 |  | > 100 | > 100 | 51.1 | 86.6 |  | 
13 | O=C(/C=C/c1ccc(Cl)cc1)c1cccs1 | 36.7 | 45.1 | > 100 | 8.29 |  | 74.4 | 52.8 | > 100 | 37.4 |  | 35.4 |  | 29.8 | 47 | 77 | 24.3 | 75.3 |  | 
14 | CCOc1cc2c(cc1O)/C(=N/NS(=O)(=O)c1ccc(C)cc1)C[C@@H]1[C@@H]2CC[C@]2(C)[C@@H](O)CC[C@@H]12 | > 100 | > 100 | > 100 | 16 | > 100 | > 100 | 7.04 | > 100 | > 100 | > 100 | > 100 | 46.4 |  | > 100 | > 100 | > 100 | > 100 | 14.9 | 3.18
